Square brackets hold non-standard residues; d marks the D form. Peptide text beside a SMILES is read from it. d1Nal = N[C@H](Cc1cccc2ccccc12)C(=O)O; dNle = CCCC[C@@H](N)C(=O)O; dDap = NC[C@@H](N)C(=O)O
test system: human red blood cells; assay: Hemolytic activity; format: cell-based; details: red cells of human, 1 h, 150
Description: The percentage of hemolysis at 150 μM was determined for all compounds as previously described. Briefly, two-fold serial dilutions (2.35 to 150 μM) of compounds in PBS were mixed with a 0.5% v/v suspension of fresh human red blood cells (RBC) in the same buffer. After 1 h incubation at 37 °C, plates were centrifuged and aliquots of the supernatants were transferred to clear ELISA plates. Absorbance at 414 nm was determined and normalised with respect to a negative (PBS, 0%) and positive (melittin, 100%) control.

| Structure (SMILES) | %H (% Hemolysis at 150 µM) [%] |
| --- | --- |
| CCCC[C@@H](NC(=O)[C@@H](CCCCN)NC(=O)[C@@H](Cc1cccc2ccccc12)NC(=O)[C@@H](Cc1cccc2ccccc12)NC(=O)[C@@H](Cc1ccccc1)NC(=O)[C@@H](Cc1cccc2ccccc12)NC(=O)[C@@H](CCCCN)NC(=O)[C@H](N)CCCCN)C(N)=O [Compound 9, kk(1-nal)f(1-nal)(1-nal)k(nle)-NH2] (H-[dK][dK][d1Nal][dF][d1Nal][d1Nal][dK][dNle]-NH2; N-terminus assumed) | 20 |
| CCCC[C@@H](NC(=O)[C@@H](CCCCN)NC(=O)[C@@H](Cc1cccc2ccccc12)NC(=O)[C@@H](CN)NC(=O)[C@@H](Cc1ccccc1)NC(=O)[C@@H](Cc1cccc2ccccc12)NC(=O)[C@@H](CCCCN)NC(=O)[C@H](N)CCCCN)C(N)=O [Compound 10, kk(1-nal)f(dap)(1-nal)k(nle)-NH2] (H-[dK][dK][d1Nal][dF][dDap][d1Nal][dK][dNle]-NH2; N-terminus assumed) | 28 |
| CCCC[C@@H](NC(=O)[C@@H](CCCCN)NC(=O)[C@@H](Cc1cccc2ccccc12)NC(=O)[C@@H](CCCC)NC(=O)[C@@H](Cc1ccccc1)NC(=O)[C@@H](Cc1cccc2ccccc12)NC(=O)[C@@H](CCCCN)NC(=O)[C@H](N)CCCCN)C(N)=O [Compound 11, kk(1-nal)f(nle)(1-nal)k(nle)-NH2] (H-[dK][dK][d1Nal][dF][dNle][d1Nal][dK][dNle]-NH2; N-terminus assumed) | 33 |
| CCCC[C@@H](NC(=O)[C@@H](CCCCN)NC(=O)[C@@H](Cc1cccc2ccccc12)NC(=O)[C@@H](Cc1ccccc1)NC(=O)[C@@H](Cc1ccccc1)NC(=O)[C@@H](Cc1cccc2ccccc12)NC(=O)[C@@H](CCCCN)NC(=O)[C@H](N)CCCCN)C(N)=O [Compound 12, kk(1-nal)ff(1-nal)k(nle)-NH2] (H-[dK][dK][d1Nal][dF][dF][d1Nal][dK][dNle]-NH2; N-terminus assumed) | 74 |
| CCCC[C@@H](NC(=O)[C@@H](CCCCN)NC(=O)[C@@H](Cc1cccc2ccccc12)NC(=O)[C@@H](CO)NC(=O)[C@@H](Cc1ccccc1)NC(=O)[C@@H](Cc1cccc2ccccc12)NC(=O)[C@@H](CCCCN)NC(=O)[C@H](N)CCCCN)C(N)=O [Compound 13, kk(1-nal)fs(1-nal)k(nle)-NH2] (H-[dK][dK][d1Nal][dF][dS][d1Nal][dK][dNle]-NH2; N-terminus assumed) | 29 |
| CCCC[C@@H](NC(=O)[C@@H](CCCCN)NC(=O)[C@@H](Cc1cccc2ccccc12)NC(=O)[C@H](NC(=O)[C@@H](Cc1ccccc1)NC(=O)[C@@H](Cc1cccc2ccccc12)NC(=O)[C@@H](CCCCN)NC(=O)[C@H](N)CCCCN)[C@H](C)O)C(N)=O [Compound 14, kk(1-nal)ft(1-nal)k(nle)-NH2] (H-[dK][dK][d1Nal][dF][dT][d1Nal][dK][dNle]-NH2; N-terminus assumed) | 28 |
| CCCC[C@@H](NC(=O)[C@@H](CCCCN)NC(=O)[C@@H](Cc1cccc2ccccc12)NC(=O)[C@@H](Cc1ccc(O)cc1)NC(=O)[C@@H](Cc1ccccc1)NC(=O)[C@@H](Cc1cccc2ccccc12)NC(=O)[C@@H](CCCCN)NC(=O)[C@H](N)CCCCN)C(N)=O [Compound 15, kk(1-nal)fy(1-nal)k(nle)-NH2] (H-[dK][dK][d1Nal][dF][dY][d1Nal][dK][dNle]-NH2; N-terminus assumed) | 40 |
| CCCC[C@@H](NC(=O)[C@@H](CCCCN)NC(=O)[C@@H](Cc1cccc2ccccc12)NC(=O)[C@H](NC(=O)[C@@H](Cc1ccccc1)NC(=O)[C@@H](Cc1cccc2ccccc12)NC(=O)[C@@H](CCCCN)NC(=O)[C@H](N)CCCCN)C(C)C)C(N)=O [Compound 16, kk(1-nal)fv(1-nal)k(nle)-NH2] (H-[dK][dK][d1Nal][dF][dV][d1Nal][dK][dNle]-NH2; N-terminus assumed) | 54 |
| CCCC[C@@H](NC(=O)[C@@H](Cc1cccc2ccccc12)NC(=O)[C@@H](Cc1cccc2ccccc12)NC(=O)[C@@H](CCCCN)NC(=O)[C@@H](Cc1ccccc1)NC(=O)[C@@H](Cc1cccc2ccccc12)NC(=O)[C@@H](CCCCN)NC(=O)[C@H](N)CCCCN)C(N)=O [Compound 17, kk(1-nal)fk(1-nal)(1-nal)(nle)-NH2] (H-[dK][dK][d1Nal][dF][dK][d1Nal][d1Nal][dNle]-NH2; N-terminus assumed) | 89 |
| CCCC[C@@H](NC(=O)[C@@H](CCCC)NC(=O)[C@@H](Cc1cccc2ccccc12)NC(=O)[C@@H](CCCCN)NC(=O)[C@@H](Cc1ccccc1)NC(=O)[C@@H](Cc1cccc2ccccc12)NC(=O)[C@@H](CCCCN)NC(=O)[C@H](N)CCCCN)C(N)=O [Compound 19, kk(1-nal)fk(1-nal)(nle)(nle)-NH2] (H-[dK][dK][d1Nal][dF][dK][d1Nal][dNle][dNle]-NH2; N-terminus assumed) | 56 |
| CCCC[C@@H](NC(=O)[C@@H](Cc1ccccc1)NC(=O)[C@@H](Cc1cccc2ccccc12)NC(=O)[C@@H](CCCCN)NC(=O)[C@@H](Cc1ccccc1)NC(=O)[C@@H](Cc1cccc2ccccc12)NC(=O)[C@@H](CCCCN)NC(=O)[C@H](N)CCCCN)C(N)=O [Compound 20, kk(1-nal)fk(1-nal)f(nle)-NH2] (H-[dK][dK][d1Nal][dF][dK][d1Nal][dF][dNle]-NH2; N-terminus assumed) | 91 |
| CCCC[C@@H](NC(=O)[C@@H](CO)NC(=O)[C@@H](Cc1cccc2ccccc12)NC(=O)[C@@H](CCCCN)NC(=O)[C@@H](Cc1ccccc1)NC(=O)[C@@H](Cc1cccc2ccccc12)NC(=O)[C@@H](CCCCN)NC(=O)[C@H](N)CCCCN)C(N)=O [Compound 21, kk(1-nal)fk(1-nal)s(nle)-NH2] (H-[dK][dK][d1Nal][dF][dK][d1Nal][dS][dNle]-NH2; N-terminus assumed) | 85 |
| CCCC[C@@H](NC(=O)[C@H](NC(=O)[C@@H](Cc1cccc2ccccc12)NC(=O)[C@@H](CCCCN)NC(=O)[C@@H](Cc1ccccc1)NC(=O)[C@@H](Cc1cccc2ccccc12)NC(=O)[C@@H](CCCCN)NC(=O)[C@H](N)CCCCN)[C@H](C)O)C(N)=O [Compound 22, kk(1-nal)fk(1-nal)t(nle)-NH2] (H-[dK][dK][d1Nal][dF][dK][d1Nal][dT][dNle]-NH2; N-terminus assumed) | 66 |
| CCCC[C@@H](NC(=O)[C@@H](Cc1ccc(O)cc1)NC(=O)[C@@H](Cc1cccc2ccccc12)NC(=O)[C@@H](CCCCN)NC(=O)[C@@H](Cc1ccccc1)NC(=O)[C@@H](Cc1cccc2ccccc12)NC(=O)[C@@H](CCCCN)NC(=O)[C@H](N)CCCCN)C(N)=O [Compound 23, kk(1-nal)fk(1-nal)y(nle)-NH2] (H-[dK][dK][d1Nal][dF][dK][d1Nal][dY][dNle]-NH2; N-terminus assumed) | 74 |
| CCCC[C@@H](NC(=O)[C@H](NC(=O)[C@@H](Cc1cccc2ccccc12)NC(=O)[C@@H](CCCCN)NC(=O)[C@@H](Cc1ccccc1)NC(=O)[C@@H](Cc1cccc2ccccc12)NC(=O)[C@@H](CCCCN)NC(=O)[C@H](N)CCCCN)C(C)C)C(N)=O [Compound 24, kk(1-nal)fk(1-nal)v(nle)-NH2] (H-[dK][dK][d1Nal][dF][dK][d1Nal][dV][dNle]-NH2; N-terminus assumed) | 50 |
| CCCC[C@@H](NC(=O)[C@@H](Cc1cccc2ccccc12)NC(=O)[C@@H](CCCCN)NC(=O)[C@@H](CCCCN)NC(=O)[C@@H](Cc1ccccc1)NC(=O)[C@@H](Cc1cccc2ccccc12)NC(=O)[C@@H](CCCCN)NC(=O)[C@H](N)CCCCN)C(N)=O [Compound 25, kk(1-nal)fkk(1-nal)(nle)-NH2] (H-[dK][dK][d1Nal][dF][dK][dK][d1Nal][dNle]-NH2) | 50 |
| CCCC[C@@H](NC(=O)[C@@H](Cc1cccc2ccccc12)NC(=O)[C@@H](CCCCN)NC(=O)[C@@H](Cc1ccccc1)NC(=O)[C@@H](Cc1cccc2ccccc12)NC(=O)[C@@H](CCCCN)NC(=O)[C@H](N)CCCCN)C(=O)N[C@H](CCCCN)C(N)=O [Compound 26, kk(1-nal)fk(1-nal)(nle)k-NH2] (H-[dK][dK][d1Nal][dF][dK][d1Nal][dNle][dK]-NH2; N-terminus assumed) | 18 |
| CCCC[C@@H](NC(=O)[C@@H](CCCCN)NC(=O)[C@@H](Cc1cccc2ccccc12)NC(=O)[C@@H](CCCCN)NC(=O)[C@@H](Cc1ccccc1)NC(=O)[C@@H](Cc1cccc2ccccc12)NC(=O)[C@H](N)CCCCN)C(N)=O [Compound 27, k(1-nal)fk(1-nal)k(nle)-NH2] (H-[dK][d1Nal][dF][dK][d1Nal][dK][dNle]-NH2; N-terminus assumed) | 49 |
| CCCC[C@@H](NC(=O)[C@@H](CCCCN)NC(=O)[C@@H](Cc1cccc2ccccc12)NC(=O)[C@@H](CCCCN)NC(=O)[C@@H](Cc1ccccc1)NC(=O)[C@H](N)Cc1cccc2ccccc12)C(N)=O [Compound 28, (1-nal)fk(1-nal)k(nle)-NH2] (H-[d1Nal][dF][dK][d1Nal][dK][dNle]-NH2; N-terminus assumed) | 62 |
| NCCCC[C@@H](N)C(=O)N[C@H](CCCCN)C(=O)N[C@H](Cc1cccc2ccccc12)C(=O)N[C@H](Cc1ccccc1)C(=O)N[C@H](CCCCN)C(=O)N[C@H](Cc1cccc2ccccc12)C(=O)N[C@H](CCCCN)C(N)=O [Compound 30, kk(1-nal)fk(1-nal)k-NH2] (HELM PEPTIDE1{[dK].[dK].[O=C([C@@H](Cc1cccc2ccccc12)N[*:1])[*:2]].[dF].[dK].[O=C([C@@H](Cc1cccc2ccccc12)N[*:1])[*:2]].[dK].[am]}$$$$V2.0; N-terminus assumed) | 11 |
| NCCCC[C@@H](N)C(=O)N[C@H](CCCCN)C(=O)N[C@H](Cc1cccc2ccccc12)C(=O)N[C@H](Cc1ccccc1)C(=O)N[C@H](CCCCN)C(=O)N[C@H](Cc1cccc2ccccc12)C(N)=O [Compound 31, kk(1-nal)fk(1-nal)-NH2] (HELM PEPTIDE1{[dK].[dK].[O=C([C@@H](Cc1cccc2ccccc12)N[*:1])[*:2]].[dF].[dK].[O=C([C@@H](Cc1cccc2ccccc12)N[*:1])[*:2]].[am]}$$$$V2.0; N-terminus assumed) | 20 |

Source: article PMC6943423, “Structure-Activity Study of an All-D Antimicrobial Octapeptide D2D” (Molecules, 2019)
